In patent publication US10131652B2, “Pyrimidinyloxy benzene derivatives as herbicides” (E. I. DU PONT DE NEMOURS AND COMPANY, priority 2014, dated 2018):

What was measured:
Experiment in all cases: Test D pre-/postemergence plant response
Type in all cases: in vivo
[1] = tested on: large (Lg) crabgrass (Digitaria sanguinalis)
In short: (§1)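 Seeds sown in loam–sand blend got preemergence sprays of test chemicals in a non-phytotoxic solvent with surfactant; postemergence sprays went on plants at 1- to 4-leaf stage (2 to 18 cm) in peat/vermiculite medium. After 13 to 15 days in greenhouse, visual injury versus controls scored 0 (no effect) to 100 (complete control).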

[2] = tested on: morningglory (Ipomoea coccinea)
In short: as §1

[3] = tested on: corn (Zea mays)
In short: as §1

[4] = tested on: Italian ryegrass (Lolium multiflorum)
In short: as §1

[5] = tested on: waterhemp (common waterhemp, Amaranthus rudis)
In short: as §1

[6] = tested on: soybean (Glycine max)
In short: as §1

[7] = tested on: johnsongrass (Sorghum halepense)
In short: as §1

[8] = tested on: pigweed (Amaranthus retroflexus)
In short: as §1

[9] = tested on: velvetleaf (Abutilon theophrasti)
In short: as §1

[10] = tested on: barnyardgrass (Echinochloa crus-galli)
In short: as §1

[11] = tested on: galium (catchweed bedstraw, Galium aparine)
In short: as §1

[12] = tested on: yellow nutsedge (Cyperus esculentus)
In short: as §1

[13] = tested on: winter wheat (Triticum aestivum)
In short: as §1

[14] = tested on: giant foxtail (Setaria faberii)
In short: as §1

[15] = tested on: ragweed (common ragweed, Ambrosia elatior)
In short: as §1

[16] = tested on: blackgrass (Alopecurus myosuroides)
In short: as §1

[17] = tested on: oilseed rape (Brassica napus)
In short: as §1

[18] = tested on: lambsquarters (Chenopodium album)
In short: as §1

[19] = Postemergence, 16 g ai/ha, scale 0 to 100 (0 no effect, 100 complete control)
[20] = Postemergence, 31 g ai/ha, scale 0 to 100 (0 no effect, 100 complete control)
[21] = Postemergence, 62 g ai/ha, scale 0 to 100, 0 no effect, 100 complete control
[22] = Postemergence, 125 g ai/ha, scale 0 to 100, 0 no effect, 100 complete control
[23] = Preemergence, 16 g ai/ha, scale 0 to 100 (0 no effect, 100 complete control)
[24] = Preemergence, 31 g ai/ha, scale 0 to 100 (0 no effect, 100 complete control)
[25] = Preemergence, 62 g ai/ha, scale 0 to 100 (0 no effect, 100 complete control)

Cc1cc(-c2ccccc2Oc2ncc(Cl)cn2)on1 [Compound 58]
Crabgrass, Large plant response rating [1, 19]: 5
Crabgrass, Large plant response rating [1, 20]: 5
Plant response rating, Crabgrass, Large [1, 21]: 5
Plant response rating, Crabgrass, Large [1, 22]: 5
Plant response rating (scale 0 to 100), Crabgrass, Large ([1]; Preemergence, 125 g ai/ha): 100
Plant response rating, Crabgrass, Large [1, 23]: 25
Plant response rating, Crabgrass, Large [1, 24]: 90
Plant response rating, Crabgrass, Large [1, 25]: 100
Morningglory plant response rating [2, 19]: 20
Morningglory plant response rating [2, 20]: 45
Plant response rating, Morningglory [2, 21]: 45
Plant response rating, Morningglory [2, 22]: 65
Plant response rating (scale 0 to 100), Morningglory ([2]; Preemergence, 125 g ai/ha): 45
Plant response rating, Morningglory [2, 23]: 10
Plant response rating, Morningglory [2, 24]: 25
Plant response rating, Morningglory [2, 25]: 0
Corn plant response rating [3, 19]: 0
Corn plant response rating [3, 20]: 0
Plant response rating, Corn [3, 21]: 5
Plant response rating, Corn [3, 22]: 5
Plant response rating (scale 0 to 100), Corn ([3]; Preemergence, 125 g ai/ha): 20
Plant response rating, Corn [3, 23]: 5
Plant response rating, Corn [3, 24]: 20
Plant response rating, Corn [3, 25]: 10
Ryegrass, Italian plant response rating [4, 19]: 0
Ryegrass, Italian plant response rating [4, 20]: 0
Plant response rating, Ryegrass, Italian [4, 21]: 0
Plant response rating, Ryegrass, Italian [4, 22]: 0
Plant response rating (scale 0 to 100), Ryegrass, Italian ([4]; Preemergence, 125 g ai/ha): 5
Plant response rating, Ryegrass, Italian [4, 23]: 0
Plant response rating, Ryegrass, Italian [4, 24]: 0
Plant response rating, Ryegrass, Italian [4, 25]: 0
Waterhemp plant response rating [5, 19]: 35
Waterhemp plant response rating [5, 20]: 40
Plant response rating, Waterhemp [5, 21]: 55
Plant response rating, Waterhemp [5, 22]: 75
Plant response rating (scale 0 to 100), Waterhemp ([5]; Preemergence, 125 g ai/ha): 100
Plant response rating, Waterhemp [5, 23]: 100
Plant response rating, Waterhemp [5, 24]: 100
Plant response rating, Waterhemp [5, 25]: 100
Soybean plant response rating [6, 19]: 55
Soybean plant response rating [6, 20]: 40
Plant response rating, Soybean [6, 21]: 60
Plant response rating, Soybean [6, 22]: 75
Plant response rating (scale 0 to 100), Soybean ([6]; Preemergence, 125 g ai/ha): 85
Plant response rating, Soybean [6, 23]: 30
Plant response rating, Soybean [6, 24]: 35
Plant response rating, Soybean [6, 25]: 80
Johnsongrass plant response rating [7, 19]: 0
Johnsongrass plant response rating [7, 20]: 0
Plant response rating, Johnsongrass [7, 21]: 0
Plant response rating, Johnsongrass [7, 22]: 5
Plant response rating (scale 0 to 100), Johnsongrass ([7]; Preemergence, 125 g ai/ha): 50
Plant response rating, Johnsongrass [7, 23]: 10
Plant response rating, Johnsongrass [7, 24]: 10
Plant response rating, Johnsongrass [7, 25]: 20
Pigweed plant response rating [8, 19]: 20
Pigweed plant response rating [8, 20]: 25
Plant response rating, Pigweed [8, 21]: 40
Plant response rating, Pigweed [8, 22]: 75
Plant response rating (scale 0 to 100), Pigweed ([8]; Preemergence, 125 g ai/ha): 100
Plant response rating, Pigweed [8, 23]: 50
Plant response rating, Pigweed [8, 24]: 100
Plant response rating, Pigweed [8, 25]: 100
Velvetleaf plant response rating [9, 19]: 60
Velvetleaf plant response rating [9, 20]: 35
Plant response rating, Velvetleaf [9, 21]: 60
Plant response rating, Velvetleaf [9, 22]: 85
Plant response rating (scale 0 to 100), Velvetleaf ([9]; Preemergence, 125 g ai/ha): 100
Plant response rating, Velvetleaf [9, 23]: 85
Plant response rating, Velvetleaf [9, 24]: 100
Plant response rating, Velvetleaf [9, 25]: 100
Barnyardgrass plant response rating [10, 19]: 0
Barnyardgrass plant response rating [10, 20]: 0
Plant response rating, Barnyardgrass [10, 21]: 0
Plant response rating, Barnyardgrass [10, 22]: 5
Plant response rating (scale 0 to 100), Barnyardgrass ([10]; Preemergence, 62 g ai/ha): 65
Plant response rating (scale 0 to 100), Barnyardgrass ([10]; Preemergence, 125 g ai/ha): 80
Plant response rating, Barnyardgrass [10, 23]: 5
Plant response rating, Barnyardgrass [10, 24]: 5
Galium plant response rating [11, 19]: 40
Galium plant response rating [11, 20]: 45
Plant response rating, Galium [11, 21]: 60
Plant response rating, Galium [11, 22]: 55
Plant response rating (scale 0 to 100), Galium ([11]; Preemergence, 125 g ai/ha): 100
Plant response rating, Galium [11, 23]: 0
Plant response rating, Galium [11, 24]: 98
Plant response rating, Galium [11, 25]: 100
Nutsedge, Yellow plant response rating [12, 19]: 0
Nutsedge, Yellow plant response rating [12, 20]: 0
Plant response rating, Nutsedge, Yellow [12, 21]: 0
Plant response rating, Nutsedge, Yellow [12, 22]: 0
Plant response rating (scale 0 to 100), Nutsedge, Yellow ([12]; Preemergence, 125 g ai/ha): 15
Plant response rating, Nutsedge, Yellow [12, 23]: 0
Plant response rating, Nutsedge, Yellow [12, 24]: 0
Plant response rating, Nutsedge, Yellow [12, 25]: 0
Wheat plant response rating [13, 19]: 0
Wheat plant response rating [13, 20]: 5
Plant response rating, Wheat [13, 21]: 10
Plant response rating, Wheat [13, 22]: 10
Plant response rating (scale 0 to 100), Wheat ([13]; Preemergence, 125 g ai/ha): 0
Plant response rating, Wheat [13, 23]: 0
Plant response rating, Wheat [13, 24]: 0
Plant response rating, Wheat [13, 25]: 0
Foxtail, Giant plant response rating [14, 19]: 0
Foxtail, Giant plant response rating [14, 20]: 0
Plant response rating, Foxtail, Giant [14, 21]: 15
Plant response rating, Foxtail, Giant [14, 22]: 30
Plant response rating (scale 0 to 100), Foxtail, Giant ([14]; Preemergence, 125 g ai/ha): 98
Plant response rating, Foxtail, Giant [14, 23]: 0
Plant response rating, Foxtail, Giant [14, 24]: 15
Plant response rating, Foxtail, Giant [14, 25]: 85
Ragweed plant response rating [15, 19]: 20
Ragweed plant response rating [15, 20]: 45
Plant response rating, Ragweed [15, 21]: 65
Plant response rating, Ragweed [15, 22]: 60
Plant response rating (scale 0 to 100), Ragweed ([15]; Preemergence, 125 g ai/ha): 100
Plant response rating, Ragweed [15, 23]: 100
Plant response rating, Ragweed [15, 24]: 35
Plant response rating, Ragweed [15, 25]: 75
Blackgrass plant response rating [16, 19]: 0
Blackgrass plant response rating [16, 20]: 0
Plant response rating, Blackgrass [16, 21]: 0
Plant response rating, Blackgrass [16, 22]: 5
Plant response rating (scale 0 to 100), Blackgrass ([16]; Preemergence, 125 g ai/ha): 95
Plant response rating, Blackgrass [16, 23]: 0
Plant response rating, Blackgrass [16, 24]: 5
Plant response rating, Blackgrass [16, 25]: 80
Oilseed Rape plant response rating [17, 19]: 5
Oilseed Rape plant response rating [17, 20]: 10
Plant response rating, Oilseed Rape [17, 21]: 60
Plant response rating, Oilseed Rape [17, 22]: 75
Plant response rating (scale 0 to 100), Oilseed Rape ([17]; Preemergence, 125 g ai/ha): 100
Plant response rating, Oilseed Rape [17, 23]: 60
Plant response rating, Oilseed Rape [17, 24]: 98
Plant response rating, Oilseed Rape [17, 25]: 100
Lambsquarters plant response rating [18, 19]: 10
Lambsquarters plant response rating [18, 20]: 75
Plant response rating, Lambsquarters [18, 21]: 60
Plant response rating, Lambsquarters [18, 22]: 90
Plant response rating (scale 0 to 100), Lambsquarters ([18]; Preemergence, 125 g ai/ha): 100
Plant response rating, Lambsquarters [18, 23]: 25
Plant response rating, Lambsquarters [18, 24]: 100
Plant response rating, Lambsquarters [18, 25]: 100
